Assay results published in patent publication US9371294B2, “Cycloalkenyl aryl derivatives for CETP inhibitor” (CHONG KUN DANG PHARMACEUTICAL CORP., priority 2011, dated 2016).

Target: T1, cholesteryl ester transfer protein (Homo sapiens, UniProt P11597)
T1 construct: As a source of cholesteryl ester transfer protein, plasma from healthy humans was used; from tissue; host or cells: plasma from healthy humans
T1 sequence (P11597 18-493): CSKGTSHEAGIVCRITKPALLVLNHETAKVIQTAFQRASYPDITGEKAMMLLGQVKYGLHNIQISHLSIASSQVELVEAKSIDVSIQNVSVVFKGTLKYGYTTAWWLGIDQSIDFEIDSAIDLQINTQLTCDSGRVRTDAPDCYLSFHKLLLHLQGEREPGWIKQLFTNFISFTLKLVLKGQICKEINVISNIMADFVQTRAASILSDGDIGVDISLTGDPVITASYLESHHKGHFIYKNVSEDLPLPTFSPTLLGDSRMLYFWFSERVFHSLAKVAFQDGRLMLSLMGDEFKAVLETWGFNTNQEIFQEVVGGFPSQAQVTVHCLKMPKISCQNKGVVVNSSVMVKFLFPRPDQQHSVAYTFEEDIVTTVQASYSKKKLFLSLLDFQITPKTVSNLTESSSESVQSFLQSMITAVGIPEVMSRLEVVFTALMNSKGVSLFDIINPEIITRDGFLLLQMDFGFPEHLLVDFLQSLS
Assay: In vitro test for the ability to inhibit cholesteryl ester transfer
Type: biochemical
Settings: [3H]-cholesteryl oleate transfer from rHDL-agarose to LDL; human plasma as CETP source; 37° C.; 16-10000 nM, duplicate
Excerpt: In Vitro Test for the Ability to Inhibit Cholesteryl Ester Transfer
1. Preparation of Cholesteryl Ester Donor
In order to prepare a cholesteryl ester donor to be used in the test, a radiolabeled recombinant HDL containing [^3H]-cholesteryl oleate (GE healthcare, TRK886, 3.5 μCi/mg of apoA-1) and apoA-1 was synthesized. Then, rHDL-agarose obtained by immobilizing the recombinant HDL with CNBr-activated Sepharose 4B resin (Amersham Biosciences, Sweden) was used in the test.
2. Cholesteryl Ester Transfer Test
As a source of cholesteryl ester transfer protein, plasma from healthy humans was used, and as cholesteryl ester receptor, LDL from healthy humans was used. Each of test compounds was added to be final concentrations of 16, 80, 400, 2000 and 10000 nM and tested in duplicate. In order to test cholesteryl ester transfer, 20 μl of plasma, 50 μl of LDL (0.25 mg/ml) and 50 μl of rHDL-agarose (0.25 mg/ml) were mixed with each other, and a solution of each test compound was added thereto and reacted thereto at 37° C. Then, the reaction solution was centrifuged at 4° C. for 3 minutes, thereby the reaction was stopped. 150 μl of the supernatant was transferred into a 96-well plate for radioactivity measurement, and the radioactivity thereof was measured with a beta-ray detector.
3. Statistical Processing
The ratio of [^3H]-cholesteryl oleate transferred from HDL to LDL was determined, and based on the determined ratio, the IC50 value of each compound was determined using GraphPad Prism 5.0.

| IC50 | SMILES |
| --- | --- |
| 700 nM | COc1cc(F)c(C(C)C)cc1C1=C(CN2C(=O)O[C@H](c3cc(C(F)(F)F)cc(C(F)(F)F)c3)[C@@H]2C)CN(C)CC1 [Compound 231, (4S,5R)-5-(3,5-bis(trifluoromethyl)phenyl)-3-((4-(4-fluoro-5-isopropyl-2-methoxyphenyl)-1-methyl-1,2,5,6-tetrahydropyridin-3-yl)methyl)-4-methyloxazolidin-2-one] |
| 4 nM | COc1ccc(C(C)C)cc1C1=C(CN2C(=O)O[C@H](c3cc(C(F)(F)F)cc(C(F)(F)F)c3)[C@@H]2C)CC(C)(C)CC1 [Compound 107, (4S,5R)-5-(3,5-bis(trifluoromethyl)phenyl)-3-((2-(5-isopropyl-2-methoxyphenyl)-5,5-dimethylcyclohex-1-enyl)methyl)-4-methyloxazolidin-2-one] |
| 600 nM | COc1ccc(C(C)C)cc1C1=C(CN2C(=S)O[C@H](c3cc(C(F)(F)F)cc(C(F)(F)F)c3)[C@@H]2C)CC(C)(C)CC1 [Compound 15, (4S,5R)-5-(3,5-bis(trifluoromethyl)phenyl)-3-((2-(5-isopropyl-2-methoxyphenyl)-5,5-dimethylcyclohex-1-enyl)methyl)-4-methyloxazolidine-2-thione] |
| 180 nM | COc1ccc(C(C)(C)O)cc1C1=C(CN2C(=O)O[C@H](c3cc(C(F)(F)F)cc(C(F)(F)F)c3)[C@@H]2C)CC(C)(C)CC1 [Compound 104, (4S,5R)-5-(3,5-bis(trifluoromethyl)phenyl)-3-((2-(5-(2-hydroxypropan-2-yl)-2-methoxyphenyl)-5,5-dimethylcyclohex-1-enyl)methyl)-4-methyloxazolidin-2-one] |
| 30 nM | COc1ccc(Cl)cc1C1=C(CN2C(=O)O[C@H](c3cc(C(F)(F)F)cc(C(F)(F)F)c3)[C@@H]2C)CC(C)(C)CC1 [Compound 353, (4S,5R)-5-(3,5-bis(trifluoromethyl)phenyl)-3-((2-(5-chloro-2-methoxyphenyl)-5,5-dimethylcyclohex-1-enyl)methyl)-4-methyloxazolidin-2-one] |
| 840 nM | COc1ccc(N)cc1C1=C(CN2C(=O)O[C@H](c3cc(C(F)(F)F)cc(C(F)(F)F)c3)[C@@H]2C)CC(C(F)(F)F)CC1 (stereo partly drawn) [Compound 195, (4S,5R)-3-((2-(5-amino-2-methoxyphenyl)-5-(trifluoromethyl)cyclohex-1-enyl)methyl)-5-(3,5-bis(trifluoromethyl)phenyl)-4-methyloxazolidin-2-one] |
| 50 nM | COc1ccc(C(O)(C(F)(F)F)C(F)(F)F)cc1C1=C(CN2C(=O)O[C@H](c3cc(C(F)(F)F)cc(C(F)(F)F)c3)[C@@H]2C)CC(C)(C)CC1 [Compound 181, (4S,5R)-5-(3,5-bis(trifluoromethyl)phenyl)-3-((2-(5-(1,1,1,3,3,3-hexafluoro-2-hydroxypropan-2-yl)-2-methoxyphenyl)-5,5-dimethylcyclohex-1-enyl)methyl)-4-methyloxazolidin-2-one] |
| 83 nM | COc1ccc(CN2CC[C@H](F)C2)cc1C1=C(CN2C(=O)O[C@H](c3cc(C(F)(F)F)cc(C(F)(F)F)c3)[C@@H]2C)CC(C)(C)CC1 [Compound 367, (4S,5R)-5-(3,5-bis(trifluoromethyl)phenyl)-3-((2-(5-(((S)-3-fluoropyrrolidin-1-yl)methyl)-2-methoxyphenyl)-5,5-dimethylcyclohex-1-enyl)methyl)-4-methyloxazolidin-2-one] |
| 140 nM | COc1cc(C(F)(F)F)c(N(C)C(=O)C(F)(F)F)cc1C1=C(CN2C(=O)O[C@H](c3cc(C(F)(F)F)cc(C(F)(F)F)c3)[C@@H]2C)CC(C)(C)CC1 [Compound 227, N-(5-(2-(((4S,5R)-5-(3,5-bis(trifluoromethyl)phenyl)-4-methyl-2-oxooxazolidin-3-yl)methyl)-4,4-dimethylcyclohex-1-enyl)-4-methoxy-2-(trifluoromethyl)phenyl)-2,2,2-trifluoro-N-methylacetamide] |
| 80 nM | COc1ccc(NS(=O)(=O)C(F)(F)F)cc1C1=C(CN2C(=O)O[C@H](c3cc(C(F)(F)F)cc(C(F)(F)F)c3)[C@@H]2C)CC(C)(C)CC1 [Compound 137, N-(3-(2-(((4S,5R)-5-(3,5-bis(trifluoromethyl)phenyl)-4-methyl-2-oxooxazolidin-3-yl)methyl)-4,4-dimethylcyclohex-1-enyl)-4-methoxyphenyl)trifluoromethanesulfonamide] |
| 51 nM | COc1ncc(CC(C)(C)C(=O)O)cc1C1=C(CN2C(=O)O[C@H](c3cc(C(F)(F)F)cc(C(F)(F)F)c3)[C@@H]2C)CC(C)(C)CC1 [Compound 350, 3-(5-(2-(((4S,5R)-5-(3,5-bis(trifluoromethyl)phenyl)-4-methyl-2-oxooxazolidin-3-yl)methyl)-4,4-dimethylcyclohex-1-enyl)-6-methoxypyridin-3-yl)-2,2-dimethylpropanoic acid] |
| 120 nM | COc1ccc(C2=N[C@H](C(C)C)CO2)cc1C1=C(CN2C(=O)O[C@H](c3cc(C(F)(F)F)cc(C(F)(F)F)c3)[C@@H]2C)CC(C)(C)CC1 [Compound 188, (4S,5R)-5-(3,5-bis(trifluoromethyl)phenyl)-3-((2-(5-((R)-4-isopropyl-4,5-dihydrooxazol-2-yl)-2-methoxyphenyl)-5,5-dimethylcyclohex-1-enyl)methyl)-4-methyloxazolidin-2-one] |
| 890 nM | COc1ccc(C=O)cc1C1=C(CN2C(=O)O[C@H](c3cc(C(F)(F)F)cc(C(F)(F)F)c3)[C@@H]2C)CCCC1 [Compound 79, 3-(2-(((4S,5R)-5-(3,5-bis(trifluoromethyl)phenyl)-4-methyl-2-oxooxazolidin-3-yl)methyl)cyclohex-1-enyl)-4-methoxybenzaldehyde] |
| 5 nM | COc1cc(F)c(C2(C)CC2)cc1C1=C(CN2C(=O)O[C@H](c3cc(C(F)(F)F)cc(C(F)(F)F)c3)[C@@H]2C)CC2(CC1)CC2 [Compound 303, (4S,5R)-5-(3,5-bis(trifluoromethyl)phenyl)-3-((6-(4-fluoro-2-methoxy-5-(1-methylcyclopropyl)phenyl)spiro[2.5]oct-5-en-5-yl)methyl)-4-methyloxazolidin-2-one] |
| 9 nM | COc1cc(F)c(CC(C)(C)C(N)=O)cc1C1=C(CN2C(=O)O[C@H](c3cc(C(F)(F)F)cc(C(F)(F)F)c3)[C@@H]2C)CC(C)(C)CC1 [Compound 329, 3-(5-(2-(((4S,5R)-5-(3,5-bis(trifluoromethyl)phenyl)-4-methyl-2-oxooxazolidin-3-yl)methyl)-4,4-dimethylcyclohex-1-enyl)-2-fluoro-4-methoxyphenyl)-2,2-dimethylpropanamide] |
| 40 nM | COc1cc(F)c(OCC(F)(F)F)cc1C1=C(CN2C(=O)O[C@H](c3cc(C(F)(F)F)cc(C(F)(F)F)c3)[C@@H]2C)CC(C)(C)CC1 [Compound 222, (4S,5R)-5-(3,5-bis(trifluoromethyl)phenyl)-3-((2-(4-fluoro-2-methoxy-5-(2,2,2-trifluoroethoxy)phenyl)-5,5-dimethylcyclohex-1-enyl)methyl)-4-methyloxazolidin-2-one] |
| 690 nM | COc1cc(C)c(N(C)S(=O)(=O)C(F)(F)F)cc1C1=C(CN2C(=O)O[C@H](c3cc(C(F)(F)F)cc(C(F)(F)F)c3)[C@@H]2C)CC(C)(C)CC1 [Compound 251, N-(5-(2-(((4S,5R)-5-(3,5-bis(trifluoromethyl)phenyl)-4-methyl-2-oxooxazolidin-3-yl)methyl)-4,4-dimethylcyclohex-1-enyl)-4-methoxy-2-methylphenyl)trifluoro-N-methylmethanesulfonamide] |
| 240 nM | COc1cc(F)c(C(C)C)cc1C1=C(CN2C(=O)O[C@H](c3cc(C(F)(F)F)cc(C(F)(F)F)c3)[C@@H]2C)CCCC1 [Compound 27, (4S,5R)-5-(3,5-bis(trifluoromethyl)phenyl)-3-((2-(4-fluoro-5-isopropyl-2-methoxyphenyl)cyclohex-1-enyl)methyl)-4-methyloxazolidin-2-one] |
| 110 nM | COc1ccc(N(C)C(=O)C(C)C)cc1C1=C(CN2C(=O)O[C@H](c3cc(C(F)(F)F)cc(C(F)(F)F)c3)[C@@H]2C)CCCC1 [Compound 86, N-(3-(2-(((4S,5R)-5-(3,5-bis(trifluoromethyl)phenyl)-4-methyl-2-oxooxazolidin-3-yl)methyl)cyclohex-1-enyl)-4-methoxyphenyl)-N-methylisobutyramide] |
